Test system: SARS-CoV-2
Experiment: microbe, parasite or virus in culture
Format: cell-based
Settings: Severe acute respiratory syndrome coronavirus 2, VeroE6/TMPRSS2; read-out: EC50 against all tested SARS-CoV-2 variants

## Cn1cnc(Cn2c(=O)[nH]/c(=N\c3cc4cn(C)nc4cc3Cl)n(Cc3cc(F)c(F)cc3F)c2=O)n1 [Compound 3, (6E)-6-[(6-Chloro-2-methyl-2H-indazol-5-yl)imino]-3-[(1-methyl-1H-1,2,4-triazol-3-yl)methyl]-1-(2,4,5-trifluorobenzyl)-1,3,5-triazinane-2,4-dione]
  EC50: 290 to 500 nM
